Patent publication US20250041294A1, “Synergistic compositions for use in the treatment of cancer” (Sartar Therapeutics Oy, priority 2021, published 2025)

Legend:
Format in all cases: cell-based
[1] = tested on: GIST882, GOT3 and SA4 cell lines; assay: High throughput drug sensitivity and resistance test, average over cell lines (BAY2666605 combination); details: for Average DSS (aDSS): BAY2666605 combination, average of GIST882, SA4 and GOT3, aDSS higher than 3.0 = synergy; for synergy in high-throughput screening (in words): with anagrelide (GOT3, SA4) or BAY2666605 (GIST882, GOT3, SA4)
In short: (§1)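 Compounds were plated in 10-fold dilutions spanning a 10,000-fold range, alone or with anagrelide (100 nM; SA4, GOT3) or BAY2666605 (40 nM; GIST882, SA4, GOT3). Viability was read by CellTiter-Glo after 72 h and normalized to DMSO and benzethonium chloride controls. Responses were expressed as DSS from four-parameter fits, and the single-agent DSS was subtracted from the combination DSS.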

GOT3 cell line [2] = assay: Drug combination testing with concentration matrices, SynergyFinder 2.0; details: combination with anagrelide, seven-concentration matrices
Procedure: (§2) Drug combination testing with anagrelide and 12 selected drugs was performed as described above but with selected drugs using drug concentration matrices covering seven different concentrations with 3 replicate sample of each combinations and in two replicate assays. […] The tool implements synergy scoring with four major reference models: HSA, Loewe, Bliss and ZIP models. The degree of a drug combination effect can be readily visualized as a synergy landscape map over the dose matrix and ZIP synergy score.

SA4 cell line [3] = assay: as above; details: combination with anagrelide, seven-concentration matrices
Procedure: as §2

GIST882 cell line [4] = assay: as above; details: combination with anagrelide, seven-concentration matrices
Procedure: as §2

GIST882 cell line [5] = assay: High throughput drug sensitivity and resistance test (CellTiter-Glo, 72 hours); details: drug combined with BAY2666605 (40 nM) minus drug alone
In short: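 GIST882 viability read by CellTiter-Glo after 72 h, normalized to 0.01% DMSO and 100 μmol/L benzethonium chloride. Compounds also combined with 40 nM BAY2666605. Four-parameter logistic curves; response as drug sensitivity score, with synergy as combination DSS minus single-agent DSS.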

GOT3 and SA4 cell lines = assay: High throughput drug sensitivity and resistance test, average over cell lines (anagrelide combination); details: anagrelide combination, average of SA4 and GOT3; aDSS higher than 3.0 = synergy
Procedure: Cell lines. PDE3A-positive (GIST882, SA4, and GOT3) and PDE3A-negative cell lines (93TT449, 94T778, LPS141, MLS17656-92, MLS402-91, and SW872) were cultured in RPMI Medium 1640 (Gibco) with 5-, 10- or 20% fetal bovine serum (FBS, gibco), 100 U/mL of penicillin, 100 […] and 0.03 mg/mL of L-glutamine (Pen Strep Glut, Gibco, 10378-016) in a humidified, 5% CO2 atmosphere at 37° C.
High throughput drug sensitivity and resistance test. A sensitivity and resistance of cancer cell lines to 528 compounds were investigated in 9 cell lines (GIST882, SA4, GOT3, 93TT449, 94T778, LPS141, MLS17656-92, MLS402-91, and SW872). In addition, same compounds were investigated together with anagrelide hydrochloride (100 nM) treatment in the PDE3A low expressing cell lines SA4 and GOT3, and with BAY2666605 (40 nM) in all PDE3A-positive cell lines GIST882, SA4 and GOT3. The compounds were dissolved in 100% dimethyl sulfoxide or water and plated in 10-fold dilutions covering a 10,000-fold concentration range on flat clear bottom 384-well microplates as described in detail earlier (Pulkka O P, et al 2019). A cell viability was measured after 72 hours using CellTiter-Glo Cell Viability assay (Promega Inc.) and PHERAstar FS plate reader (BMG Labtech). The data were normalized to negative (0.01% dimethyl sulfoxide only) and positive (100 μmol/L benzethonium chloride) controls.
A four-parameter logistic dose-response curves were estimated by using the Marquardt-Levenberg algorithm and Breeze analysis platform. Drug responses to the test compounds were measured using the drug sensitivity score (DSS). Drug synergy partners, which were common in investigated cell lines were identified as following: DSS value of a single agent was subtracted from the DSS value of anagrelide-drug combination in single cell lines. […] The analysis was repeated by using BAY2666605 as a PDE3A modulator.

GOT3 cell line [6] = assay: High throughput drug sensitivity and resistance test (CellTiter-Glo, 72 hours); details: GOT3; for GOT3 cell line: DSS(combo (BAY2666605))-DSS(drug): drug combined with BAY2666605 (40 nM) minus drug alone; for GOT3 cell line: DSS(combo (anagrelide))-DSS(drug): drug combined with anagrelide hydrochloride (100 nM) minus drug alone
In short: as §1

SA4 cell line [7] = assay: as above; details: SA4; for SA4 cell line: DSS(combo (BAY2666605))-DSS(drug): drug combined with BAY2666605 (40 nM) minus drug alone; for SA4 cell line: DSS(combo (anagrelide))-DSS(drug): drug combined with anagrelide hydrochloride (100 nM) minus drug alone
In short: as §1

SMILES	Average DSS (aDSS) [1]	synergy in high-throughput screening (in words) [1]	Average ZIP synergy score (GOT3 cell line [2])	Average ZIP synergy score (SA4 cell line [3])	Average ZIP synergy score (GIST882 cell line [4])	GIST882 cell line: DSS(combo (BAY2666605))-DSS(drug) (GIST882 cell line [5])	Average DSS (aDSS) (GOT3 and SA4 cell lines)	GOT3 cell line: DSS(combo (BAY2666605))-DSS(drug) (GOT3 cell line [6])	GOT3 cell line: DSS(combo (anagrelide))-DSS(drug) (GOT3 cell line [6])	SA4 cell line: DSS(combo (BAY2666605))-DSS(drug) (SA4 cell line [7])	SA4 cell line: DSS(combo (anagrelide))-DSS(drug) (SA4 cell line [7])
Cc1nc(Nc2n[nH]c3c2CN(C(=O)N[C@H](CN(C)C)c2ccccc2)C3(C)C)c2sccc2n1 [PF-03758309]	3.4	synergistic	8.5	16.8	11.5	0.5	11.9	−3.6	3.7	13.4	20.1
NS(=O)(=O)OC[C@@H]1C[C@@H](n2ccc3c(N[C@H]4CCc5ccccc54)ncnc32)C[C@@H]1O [Pevonedistat, pevonedistat]	7.5	synergistic	12.7	7.8	4.6	9.3	8.25	6.2	2.7	7	13.8
Cn1cc(CNCC2CCN(c3ncc(C(=O)NO)cn3)CC2)c2ccccc21 [Quisinostat, quisinostat]	11.0	synergistic	6.9	8.7	6.5	8.7	8.85	8	1.9	16.2	15.8
CCN1C(=O)CNc2ncc(-c3ccc(-c4nc[nH]n4)nc3C)nc21 [CC-115]	–	synergistic	1.6	4.1	3.1	–	5.15	–	0.8	–	9.5
CO[C@H]1C[C@@H]2CC[C@@H](C)[C@@](O)(O2)C(=O)C(=O)N2CCCC[C@H]2C(=O)O[C@H]([C@H](C)C[C@@H]2CC[C@@H](OCCO)[C@H](OC)C2)CC(=O)[C@H](C)/C=C(\C)[C@@H](O)[C@@H](OC)C(=O)[C@H](C)C[C@H](C)/C=C/C=C/C=C/1C [Everolimus, everolimus]	6.5	synergistic	2.3	5.5	5	3	5.55	4.1	3	12.4	8.1
CO[C@H]1C[C@@H]2CC[C@@H](C)[C@@](O)(O2)C(=O)C(=O)N2CCCC[C@H]2C(=O)O[C@H]([C@H](C)C[C@@H]2CC[C@@H](OC(=O)C(C)(CO)CO)[C@H](OC)C2)CC(=O)[C@H](C)/C=C(\C)[C@@H](O)[C@@H](OC)C(=O)[C@H](C)C[C@H](C)/C=C/C=C/C=C/1C [Temsirolimus, temsirolimus]	4.6	synergistic	0.4	3.6	2.8	7.4	5.45	1.2	1.1	5.3	9.8
Cc1ccc(NS(=O)(=O)c2cccc(C#N)c2)c2[nH]cc(C#N)c12 [E7820]	–	synergistic	1.6	14.8	3	–	12.85	–	7.5	–	18.2
CC(C)C[C@@H](C(=O)N[C@H](C(=O)OC1CCCC1)c1ccccc1)[C@H](O)C(=O)NO [Tosedostat, tosedostat]	14.1	synergistic	–	–	–	21	3.8	6.7	2.5	14.6	5.1
O=C(CCCCCCC(=O)Nc1ccccc1)NO [Vorinostat, vorinostat]	6.5	synergistic	–	–	–	4.2	3.25	1.6	−0.7	13.7	7.2
Cc1[nH]c2ccccc2c1CCNCc1ccc(/C=C/C(=O)NO)cc1 [Panobinostat, panobinostat]	7.0	–	–	–	–	6.1	5.6	8.2	−0.5	6.7	11.7
